For one assay, the system named is mouse leukemia L1210. As to conditions: compared with garcinia acid; cited from earlier work.
Assay [1] has as its system Human breast cancer cells MCF-7. In words: growth inhibition of tumor cell MCF-7 (MTT colorimetric method). The format is cell-based. The source says: (§1) The compounds synthesized from the present invention were studied by sulforhodamine B protein staining (sulfothodalnine B, SRB) and miceroculture tetrazolinetetrozohuln (MTT) colorimetric method respectively for in vitro anti-tumor activity (Cancer Res., 1988, 48 (3): 589).
(§2) The concentration gradient of the test compounds of the present invention is 10^−4M, 10^−5M, 10^−6M, 10^−7M, 10^−8M, and the test compounds are 6-methoxy methyl ester gambogenic acid, ethyl ester gambogenic acid, 6-ethoxy ethyl ester gambogenic acid, 6-acyl gambogenic acid, piperidine gambogenic acid, diethylamide gambogenic acyl, morpholine gambogenic acid, and 12-hydroxy gambogenic acid, and 8,9-epoxy gambogenic acid. The test compounds and positive control gambogenic acid were diluted with dimethyl sulfoxide. Inhibition rate(%)=[(control group OD value−administered group OD value)/control group OD value]×100%
Human breast cancer cells MCF-7 were cultured in DMEM containing 10% FBS, the cell with long-growth phase was formed into suspension and cultured in 96-well plates. The test compounds as experimental group with different concentrations were added into each well of the 96-well plates. Blank control group received an equal volume containing the highest concentration of solvent (ie, 10^−4M dimethyl sulfoxide) in DMEM. After incubation at 37° C. under 5% carbon dioxide conditions for 72 hours, each well was added with MTT to 1 mg/ml final concentration for incubation for 4 hours. The supernatant solution in each well was aspirated and added with 200 μl DMSO to dissolve crystals, and then OD values were measured at 490 nm by an automatic plate reader spectrophotometer. A tumor cell group without drugs is a blank control group.

The test system of assay [2] is Human oral squamous cells carcinoma Cal27. In words: growth inhibition of tumor cell Cal27 (SRB staining). The format is cell-based.
Excerpt: as §1, §2
Human oral squamous cells carcinoma Cal27 were cultured in DMEM containing 10% fetal bovine serum (FBS), the cells with long-growth phase were forming suspension and culturing in 96-well plates. 10 μl test compounds of different concentrations as experimental group were added into each well of the 96-well plates. Blank control group received an equal volume containing the highest concentration of solvent (ie, 10^−4M dimethyl sulfoxide) in DMEM. After incubation at 37° C. under 5% carbon dioxide conditions for 72 hours, the cells were fixed with trichloroacetic acid, and each well was added with 100 μl SRB solution, unbound SRB was washed away, and then OD values were measured at 550 nm by an automatic plate reader spectrophotometer. A tumor cell group without drugs is a blank control group.
Background: Sulforhodamine B stains cellular protein and so reports cell mass.

Where [3] appears, read: Homo sapiens, MCF7, 72 h, read-out: growth inhibition rate.
Setting [4] is: Homo sapiens, CAL-27, 72 h, read-out: growth inhibition rate.

By inhibition is commonly meant the change of the read-out against control, counted positive when it falls. With `CC(C)=CCC/C(C)=C/Cc1c(O)c(CC=C(C)C)c2c(c1O)C(=O)C1=CC3CC4C(C)(C)OC(C/C=C(/C)C(=O)O)(C3=O)C14O2` (stereo not shown) [gambogenic acid, Gambogenic acid], in the assay with mouse leukemia L1210, the “highest survival rate extended, relative to garcinia acid” value is recorded as “up to 2.45 times”. In assay [1] (setting [3]), the inhibition at 0.01 µM was 0%, the inhibition at 0.1 µM was 0%, the inhibition at 1 µM came out at 0% and the inhibition at 10 µM was determined as 100%. Also, the inhibition at 100 µM in assay [1] (setting [3]) was 100%. Further, in assay [1] (MCF-7, assessment of results), the efficacy result is reported as “invalid (Invalid: 10^−5M inhibition rate<85%)”. Moreover, the efficacy entry in assay [2] (Cal27, assessment of results) is reported as “invalid (Invalid: 10^−5M inhibition rate<85%)”. In addition, in assay [2] (setting [4]), the inhibition at 0.01 µM worked out at 0%, the inhibition at 0.1 µM was determined as 0%, the inhibition at 1 µM was 5% and the inhibition at 10 µM amounted to 100%. Also, in assay [2] (setting [4]), the inhibition at 100 µM was 100%.

The values above are taken from patent publication US9187491B2, “Gambogenic acid derivatives, preparation method and application thereof” (Ninth People's Hospital, School Medicine Shanghai Jiao Tong …, priority 2012, dated 2015).
